Target: T1, human FSH receptor (Homo sapiens, UniProt P23945)
T1 construct: expressed in transfected cells
T1 sequence (P23945 18-695): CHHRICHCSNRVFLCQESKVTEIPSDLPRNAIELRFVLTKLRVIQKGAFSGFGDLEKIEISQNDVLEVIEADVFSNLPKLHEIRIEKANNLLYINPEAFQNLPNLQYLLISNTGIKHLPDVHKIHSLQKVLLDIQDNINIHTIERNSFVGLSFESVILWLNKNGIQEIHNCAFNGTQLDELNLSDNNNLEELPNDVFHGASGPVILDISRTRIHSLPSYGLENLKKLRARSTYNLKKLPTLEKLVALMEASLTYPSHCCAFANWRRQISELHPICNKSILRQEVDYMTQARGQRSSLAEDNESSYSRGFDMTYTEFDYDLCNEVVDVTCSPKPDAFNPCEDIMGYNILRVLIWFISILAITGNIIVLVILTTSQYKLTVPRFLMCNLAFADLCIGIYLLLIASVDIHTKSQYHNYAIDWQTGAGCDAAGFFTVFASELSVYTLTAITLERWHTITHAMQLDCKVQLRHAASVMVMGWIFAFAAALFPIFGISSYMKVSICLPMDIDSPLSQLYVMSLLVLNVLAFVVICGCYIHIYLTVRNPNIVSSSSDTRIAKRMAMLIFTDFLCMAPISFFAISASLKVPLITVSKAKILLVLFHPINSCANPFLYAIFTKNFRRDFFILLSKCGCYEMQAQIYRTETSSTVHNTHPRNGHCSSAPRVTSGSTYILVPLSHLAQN
Test: hFSHRago (CHO luc): agonistic activity at the human FSH receptor expressed in CHO cells, CRE-luciferase reporter
Format: cell-based
Settings: CHO cells stably transfected with human FSH receptor and CRE/luciferase reporter; 4 hours of incubation

COc1cc2c(cc1N1CCN(C(C)=O)CC1)-c1c(-c3cccs3)cc(C(=O)N(C)C(C)(C)C)n1CC2 [Example 53, 9-(4-Acetyl-piperazin-1-yl)-8-methoxy-1-thiophen-2-yl-5,6-dihydro-pyrrolo[2,1-α]isoquinoline-3-carboxylic acid tert-butyl-methyl-amide] was tested. Which EC50 did it give?
The EC50 was 0.678 µM.

With COc1cc2c(cc1[N+](=O)[O-])-c1c(-c3cccs3)cc(C(=O)N(C)C(C)(C)C)n1CC2 [Example 94, 8-Methoxy-9-nitro-1-thiophen-2-yl-5,6-dihydro-pyrrolo[2,1-α]isoquinoline-3-carboxylic acid tert-butyl-methyl-amide] as the molecule, how does the EC50 read?
Its EC50 is 0.003 µM.

Which EC50 does the source give for COc1cc2c(cc1OCC1CCCO1)-c1c(-c3cccs3)cc(C(=O)N3CCCN(C(C)=O)CC3)n1CC2 (stereo not drawn) [Example 78, 1-{4-[8-Methoxy-9-(tetrahydro-furan-2-ylmethoxy)-1-thiophen-2-yl-5,6-dihydro-pyrrolo[2,1-α]isoquinoline-3-carbonyl]-perhydro-1,4-diazepin-1-yl}-ethanone] here?
Its EC50 is 0.0962 µM.

For COc1cc2c(cc1N1CCOCC1)-c1c(-c3cccs3)cc(C(=O)N(C)C(C)(C)C)n1CC2 [Example 56, 8-Methoxy-9-morpholin-4-yl-1-thiophen-2-yl-5,6-dihydro-pyrrolo[2,1-α]isoquinoline-3-carboxylic acid tert-butyl-methyl-amide], which EC50 is on record?
Its EC50 is 0.0157 µM.

How did the EC50 turn out when COc1cc2c(cc1OC(C)C)-c1c(C#N)cc(C(=O)N(C)C(C)(C)C)n1CC2 [Example 37d, 1-Cyano-9-isopropoxy-8-methoxy-5,6-dihydro-pyrrolo[2,1-α]isoquinoline-3-carboxylic acid tert-butyl-methyl-amide] was run?
Its EC50 is 0.0671 µM.

For COc1cc2c(cc1OC1CCCC1)-c1c(-c3cccs3)cc(C(=O)N3CCCN(C(C)=O)CC3)n1CC2 [Example 79, 1-[4-(9-Cyclopentyloxy-8-methoxy-1-thiophen-2-yl-5,6-dihydro-pyrrolo[2,1-α]isoquinoline-3-carbonyl)-perhydro-1,4-diazepin-1-yl]-ethanone], which EC50 is on record?
The EC50 was 0.0142 µM.

How did the EC50 turn out when COc1cc2c(cc1CC(C)C)-c1c(-c3nccs3)cc(C(=O)N(C)C(C)(C)C)n1CC2 [Example 60, 9-Isobutyl-8-methoxy-1-thiazol-2-yl-5,6-dihydro-pyrrolo[2,1-α]isoquinoline-3-carboxylic acid tert-butyl-methyl-amide] was run?
The EC50 was 0.019 µM.

Which EC50 does the source give for CN(C(=O)c1cc(-c2cccs2)c2n1CCc1ccc(N3CCNC3=O)cc1-2)C(C)(C)C [Example 90, 9-(2-Oxo-imidazolidin-1-yl)-1-thiophen-2-yl-5,6-dihydro-pyrrolo[2,1-α]isoquinoline-3-carboxylic acid tert-butyl-methyl-amide] here?
The EC50 was 0.218 µM.

How did the EC50 turn out when CCN(C(=O)c1cc(-c2cccs2)c2n1CCc1c-2cc(OC)c(OC)c1F)C(C)C [Example 115, 7-Fluoro-8,9-dimethoxy-1-thiophen-2-yl-5,6-dihydro-pyrrolo[2,1-α]isoquinoline-3-carboxylic acid ethyl-isopropyl-amide] was run?
The EC50 was 0.937 µM.

How did the EC50 turn out when CNCC(=O)N1CCCN(C(=O)c2cc(-c3cccs3)c3n2CCc2cc(OC)c(OC(C)C)cc2-3)CC1 [Example 6, 1-[4-(9-Isopropoxy-8-methoxy-1-thiophen-2-yl-5,6-dihydro-pyrrolo[2,1-α]isoquinoline-3-carbonyl)-[1,4]diazepan-1-yl]-2-methylamino-ethanone] was run?
The EC50 was 0.264 µM.

For COc1cc2c(cc1C=C(C)C)-c1c(-c3cccs3)cc(C(=O)N(C)C(C)(C)C)n1CC2 [Example 58b, 8-Methoxy-9-(2-methyl-propenyl)-1-thiophen-2-yl-5,6-dihydro-pyrrolo[2,1-α]isoquinoline-3-carboxylic acid tert-butyl-methyl-amide], which EC50 is on record?
Its EC50 is 0.0007 µM.

With COc1cc2c(cc1OC(C)C)-c1c(-c3cccs3)cc(C(=O)C(C)N(C)C)n1CC2 (stereo not drawn) [Example 47, 2-Dimethylamino-1-(9-isopropoxy-8-methoxy-1-thiophen-2-yl-5,6-dihydro-pyrrolo[2,1-α]isoquinolin-3-yl)-propan-1-one] as the molecule, how does the EC50 read?
The EC50 was 0.149 µM.

— patent US8394789B2, “(Dihydro)pyrrolo[2,1-α]isoquinolines” (MSD Oss B.V., priority 2008, dated 2013)
